The subject of assay [1] is Apt11 (FAM) (DNA, aptamer) CTGTTTGGTACGCAG
Description: graphene oxide fluorescence assay. The settings on record: aptamer 0-250 nM titrated against 1.5 μM MNZ, 2 h.

For assay [2], the system named is Apt1-3 (FAM) (DNA, aptamer) CTGTTTGCTACGCAG
Description: graphene oxide fluorescence assay. The conditions noted are these: aptamer 0-250 nM titrated against 1.5 μM MNZ, 2 h; abstract prints error 25.59.

Assay [3] has as its system Apt0 (FAM) (DNA, aptamer) CTGTTTGGTAGGCAG
Description: graphene oxide fluorescence assay. The settings on record: aptamer 0-250 nM titrated against 1.5 μM MNZ, 2 h.

Assay [4] deals with Apt8 (FAM) (DNA, aptamer) CTGTTTGCTAGGCAG
Description: graphene oxide fluorescence assay. The conditions noted are these: aptamer 0-250 nM titrated against 1.5 μM MNZ, 2 h.

Assay [5] has as its system Apt1-3 (DNA, aptamer) CTGTTTGCTACGCAG
Description: exonuclease I/III digestion, SYBR Gold fluorescence. The conditions noted are these: 0.25 μM MNZ, 25 °C, aptamer varied.

The source of these data is paper PMC11327025 (2024).

As usually defined, the Kd is the concentration at which binding is half-saturated. A higher Kd goes with lower affinity.

Each structure is given as a SMILES string.

On to `Cc1ncc([N+](=O)[O-])n1CCO`, for which the Kd in assay [1] turned out to be 151.49 ± 56.08 nM; in assay [2] it was 92.60 ± 25.58 nM; in assay [3], 154.28 ± 51.87 nM; in assay [4], 126.18 ± 41.91 nM. Further, the binding entry in assay [5] is listed as “yes”.
